Test results taken from the supplement of paper PMC10307832.

How the values were obtained:
Experiment in all cases: relative viability (nuclei count vs DMSO), 5 days (fraction); higher = more cells survive
GSK126 + Dasatinib = compound: CC[C@H](C)N1C=C(C2=C(C=C(C=C21)C3=CN=C(C=C3)N4CCNCC4)C(=O)NCC5=C(C=C(NC5=O)C)C)C [GSK126] + Cc1nc(Nc2ncc(C(=O)Nc3c(C)cccc3Cl)s2)cc(N2CCN(CCO)CC2)n1 [Dasatinib] (partner 0.075 µM)
Procedure, shortened: (§1)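 A single step with final 0.05% Triton X-100, 1% formaldehyde and 1 ug/ml Hoechst fixed the cells and stained nuclei 5 days after treatment. Lung cancer cell lines in 1536-well plates had been treated by pin tool the day after seeding with one drug alone or a fixed anchor-drug dose plus five library-drug doses (not always all listed) in √10 steps, and nuclei were counted on 4× images. Relative viability is the ratio of nuclei in treated wells to nuclei in vehicle wells, taken as the median of duplicate plates.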

Carboplatin + Lapatinib = compound: C1CC(C1)(C(=O)O)C(=O)O.[NH2-].[NH2-].[Pt+2] [Carboplatin] + CS(=O)(=O)CCNCc1ccc(-c2ccc3ncnc(Nc4ccc(OCc5cccc(F)c5)c(Cl)c4)c3c2)o1 [Lapatinib] (partner 2 µM)
Procedure, shortened: as §1

GSK126 + Lapatinib = compound: CC[C@H](C)N1C=C(C2=C(C=C(C=C21)C3=CN=C(C=C3)N4CCNCC4)C(=O)NCC5=C(C=C(NC5=O)C)C)C [GSK126] + CS(=O)(=O)CCNCc1ccc(-c2ccc3ncnc(Nc4ccc(OCc5cccc(F)c5)c(Cl)c4)c3c2)o1 [Lapatinib] (partner 2 µM)
Procedure, shortened: as §1

GSK126 + Trametinib = compound: CC[C@H](C)N1C=C(C2=C(C=C(C=C21)C3=CN=C(C=C3)N4CCNCC4)C(=O)NCC5=C(C=C(NC5=O)C)C)C [GSK126] + CC(=O)Nc1cccc(-n2c(=O)n(C3CC3)c(=O)c3c(Nc4ccc(I)cc4F)n(C)c(=O)c(C)c32)c1 [Trametinib] (partner 0.02 µM)
Procedure, shortened: as §1

Row | Cell Line | relative viability (GSK126 + Dasatinib; first compound 0.08 µM) | relative viability (GSK126 + Dasatinib; first compound 0.253 µM) | relative viability (GSK126 + Dasatinib; first compound 0.8 µM) | relative viability (GSK126 + Dasatinib; first compound 2.53 µM) | relative viability (GSK126 + Dasatinib; first compound 8 µM) | relative viability (Carboplatin + Lapatinib; first compound 0.08 µM) | relative viability (Carboplatin + Lapatinib; first compound 0.253 µM) | relative viability (Carboplatin + Lapatinib; first compound 0.8 µM) | relative viability (Carboplatin + Lapatinib; first compound 2.53 µM) | relative viability (Carboplatin + Lapatinib; first compound 8 µM) | relative viability (GSK126 + Lapatinib; first compound 0.08 µM) | relative viability (GSK126 + Lapatinib; first compound 0.253 µM) | relative viability (GSK126 + Lapatinib; first compound 0.8 µM) | relative viability (GSK126 + Lapatinib; first compound 2.53 µM) | relative viability (GSK126 + Lapatinib; first compound 8 µM) | relative viability (GSK126 + Trametinib; first compound 0.08 µM) | relative viability (GSK126 + Trametinib; first compound 0.253 µM) | relative viability (GSK126 + Trametinib; first compound 0.8 µM) | relative viability (GSK126 + Trametinib; first compound 2.53 µM) | relative viability (GSK126 + Trametinib; first compound 8 µM)
1 | NCI-H1755 | 0.502 | 0.49 | 0.405 | 0.448 | 0.428 | 1.06 | 1.1 | 1.11 | 1.09 | 0.995 | 1.1 | 1.07 | 1.04 | 1.01 | 1.1 | 0.771 | 0.736 | 0.777 | 0.826 | 0.793
2 | NCI-H2009 | 0.331 | 0.261 | 0.306 | 0.231 | 0.296 | 1.37 | 0.89 | 0.837 | 0.958 | 0.572 | 1.23 | 0.893 | 0.985 | 0.942 | 1.06 | 0.332 | 0.233 | 0.286 | 0.348 | 0.321
3 | LK-2 | 0.361 | 0.336 | 0.196 | 0.41 | 0.259 | 1.17 | 0.956 | 0.858 | 0.792 | 0.809 | 0.947 | 0.952 | 0.876 | 0.916 | 0.673 | 0.861 | 0.817 | 0.779 | 0.857 | 0.575
4 | HCC-827 | 0.333 | 0.275 | 0.401 | 0.396 | 0.287 | 0.236 | 0.175 | 0.18 | 0.187 | 0.224 | 0.189 | 0.179 | 0.19 | 0.152 | 0.197 | 0.478 | 0.496 | 0.54 | 0.635 | 0.531
5 | NCI-H322M | 0.247 | 0.252 | 0.266 | 0.278 | 0.27 | 0.653 | 0.639 | 0.55 | 0.561 | 0.609 | 0.616 | 0.638 | 0.604 | 0.654 | 0.66 | 0.499 | 0.478 | 0.482 | 0.548 | 0.552
6 | NCI-H727 | 0.353 | 0.36 | 0.39 | 0.416 | 0.348 | 0.998 | 0.782 | 0.85 | 0.745 | 0.448 | 0.746 | 0.81 | 0.984 | 0.884 | 1.06 | 0.4 | 0.4 | 0.424 | 0.39 | 0.412
